Data reported in PMC5829162, “Rational Design, Synthesis and Biological Evaluation of Pyrimidine-4,6-diamine derivatives as Type-II inhibitors of FLT3 Selective Against c-KIT” (Scientific Reports, 2018).
Like-named read-outs stand apart in the source and are kept apart here.

Assays:
MV4–11 AML cells = assay: Cell proliferation (CellTiter-Glo, 48 h), MV4-11; assay type: cell-based; conditions: Homo sapiens; MV4–11, 48 hours
Source text: (§1) Stable BaF3 populations expressing activated FLT3 were generated by retroviral spinfection with the appropriate mutated plasmid followed by selection and growth factor withdrawal as previously described. The BaF3 cell line was originally obtained from the laboratory of Charles Sawyers and has not been authenticated. MV411 and Molm14 cells were obtained from the laboratory of Scott Kogan and authenticated by Promega STR analysis in June 2013. All cell lines were mycoplasma-free. Cells were incubated with compounds for 48 hours and proliferation was assessed using CellTiter-Glo (Promega; Madison, WI) according to the manufacturer’s recommendation on a SpectraMax M3 microplate reader using SpectraMax Software (Molecular Devices; Sunnyvale, CA). All cell viability data shown is reflective of experiments performed a minimum of three times. […]
(§2) S13. Cell Cultures: Stable BaF3 populations expressing activated FLT3 were generated by retroviral spinfection with the appropriate mutated plasmid followed by selection and growth factor withdrawal as previously described .4 The BaF3 cell line was originally obtained from the laboratory of Charles Sawyers and has not been authenticated. MV411 and Molm14 cells were obtained from the laboratory of Scott Kogan and authenticated by Promega STR analysis in June
(§3) 2013. All cell lines were mycoplasma -free. Cells were incubated with compounds for 48 hours and proliferation was assessed using CellTiter -Glo (Promega; Madison, WI) according to the manufacturer’s recommendation on a SpectraMax M3 microplate reader using SpectraMax Software (Molecular Devices; Sunnyvale, CA). All cell viability data shown is reflective of experiments performed a minimum of three times.

CSF-1R = CSF-1R (Homo sapiens, UniProt P07333); assay: Biochemical kinase selectivity assay, CSF-1R
Chain of CSF-1R (P07333 20-972, species assumed): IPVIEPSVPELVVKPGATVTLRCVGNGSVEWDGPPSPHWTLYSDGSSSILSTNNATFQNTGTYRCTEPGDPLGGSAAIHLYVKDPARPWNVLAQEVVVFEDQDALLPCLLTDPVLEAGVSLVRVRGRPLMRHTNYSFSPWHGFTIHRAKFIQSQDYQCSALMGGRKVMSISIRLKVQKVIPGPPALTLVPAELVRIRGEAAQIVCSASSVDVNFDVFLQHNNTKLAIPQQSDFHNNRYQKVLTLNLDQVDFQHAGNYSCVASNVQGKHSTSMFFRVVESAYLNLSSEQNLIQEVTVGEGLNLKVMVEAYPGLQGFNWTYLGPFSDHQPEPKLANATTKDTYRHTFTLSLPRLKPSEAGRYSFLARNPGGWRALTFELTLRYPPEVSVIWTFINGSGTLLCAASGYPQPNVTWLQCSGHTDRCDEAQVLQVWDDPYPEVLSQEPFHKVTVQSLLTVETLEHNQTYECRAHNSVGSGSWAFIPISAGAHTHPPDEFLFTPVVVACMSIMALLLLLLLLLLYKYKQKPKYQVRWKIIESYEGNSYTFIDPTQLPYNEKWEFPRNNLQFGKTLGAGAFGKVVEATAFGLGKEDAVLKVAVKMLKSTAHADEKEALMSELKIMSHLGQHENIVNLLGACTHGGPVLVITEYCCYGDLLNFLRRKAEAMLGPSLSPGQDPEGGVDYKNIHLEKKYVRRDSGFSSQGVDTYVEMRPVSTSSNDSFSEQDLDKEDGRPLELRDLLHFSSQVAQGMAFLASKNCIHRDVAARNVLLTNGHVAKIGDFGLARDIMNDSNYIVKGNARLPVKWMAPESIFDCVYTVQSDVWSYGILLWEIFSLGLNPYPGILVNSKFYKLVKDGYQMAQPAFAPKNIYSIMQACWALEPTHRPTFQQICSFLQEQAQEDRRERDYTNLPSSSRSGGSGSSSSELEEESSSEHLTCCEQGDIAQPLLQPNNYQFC

Aurora B = Aurora B (Homo sapiens, UniProt Q96GD4); assay: Biochemical kinase selectivity assay, Aurora B
Chain of Aurora B (Q96GD4 whole entry): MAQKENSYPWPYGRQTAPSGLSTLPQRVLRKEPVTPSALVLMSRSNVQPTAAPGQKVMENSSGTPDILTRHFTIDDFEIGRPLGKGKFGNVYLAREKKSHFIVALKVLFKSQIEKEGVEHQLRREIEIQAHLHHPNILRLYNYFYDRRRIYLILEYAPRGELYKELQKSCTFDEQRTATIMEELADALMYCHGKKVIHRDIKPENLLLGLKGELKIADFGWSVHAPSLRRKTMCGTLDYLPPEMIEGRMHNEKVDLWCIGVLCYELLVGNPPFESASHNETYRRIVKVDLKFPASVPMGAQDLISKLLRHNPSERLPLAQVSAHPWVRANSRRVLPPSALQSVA

RET = RET (Homo sapiens, UniProt P07949); assay: Biochemical kinase selectivity assay, RET; conditions: in vitro kinase assay; read-out: RET IC50 (nM) ± SD
Chain of RET (P07949 29-1114, species assumed): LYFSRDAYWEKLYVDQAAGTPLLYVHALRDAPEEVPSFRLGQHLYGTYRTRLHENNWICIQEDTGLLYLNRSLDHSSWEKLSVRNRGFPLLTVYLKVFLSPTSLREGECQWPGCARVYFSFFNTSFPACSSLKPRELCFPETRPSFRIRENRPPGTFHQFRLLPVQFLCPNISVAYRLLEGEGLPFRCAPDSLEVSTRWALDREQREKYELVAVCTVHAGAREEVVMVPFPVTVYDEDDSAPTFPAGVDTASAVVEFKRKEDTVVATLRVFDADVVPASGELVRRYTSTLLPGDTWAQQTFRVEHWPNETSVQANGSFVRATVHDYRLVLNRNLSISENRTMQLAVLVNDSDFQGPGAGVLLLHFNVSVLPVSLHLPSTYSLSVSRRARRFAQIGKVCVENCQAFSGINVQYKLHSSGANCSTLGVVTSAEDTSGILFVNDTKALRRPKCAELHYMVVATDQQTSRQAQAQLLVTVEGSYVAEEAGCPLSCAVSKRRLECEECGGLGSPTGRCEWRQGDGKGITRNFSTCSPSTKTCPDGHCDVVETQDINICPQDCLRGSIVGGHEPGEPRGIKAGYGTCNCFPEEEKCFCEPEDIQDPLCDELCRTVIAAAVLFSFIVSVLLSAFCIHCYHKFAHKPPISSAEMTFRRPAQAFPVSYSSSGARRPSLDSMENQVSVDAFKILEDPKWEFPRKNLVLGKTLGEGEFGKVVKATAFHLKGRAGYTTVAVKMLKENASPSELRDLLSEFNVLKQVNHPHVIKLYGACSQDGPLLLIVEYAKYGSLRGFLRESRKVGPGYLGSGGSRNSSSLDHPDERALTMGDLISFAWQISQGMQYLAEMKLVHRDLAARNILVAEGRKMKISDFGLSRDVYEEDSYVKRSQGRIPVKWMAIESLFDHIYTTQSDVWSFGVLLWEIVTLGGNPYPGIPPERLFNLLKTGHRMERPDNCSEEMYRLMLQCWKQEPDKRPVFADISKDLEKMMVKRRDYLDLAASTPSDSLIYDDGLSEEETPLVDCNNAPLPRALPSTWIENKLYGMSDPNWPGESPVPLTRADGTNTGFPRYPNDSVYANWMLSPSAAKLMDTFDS

Molm14 par = assay: Cell proliferation (CellTiter-Glo, 48 h), Molm14 par; assay type: cell-based; conditions: Homo sapiens, MOLM-14
Source text: as §1, §2, §3

RETV804L = molecular target: T1, RETV804L (Homo sapiens, UniProt P07949, V804L); assay: Biochemical kinase selectivity assay, RET V804L
T1 sequence (P07949 658-1114 V804L limits assumed): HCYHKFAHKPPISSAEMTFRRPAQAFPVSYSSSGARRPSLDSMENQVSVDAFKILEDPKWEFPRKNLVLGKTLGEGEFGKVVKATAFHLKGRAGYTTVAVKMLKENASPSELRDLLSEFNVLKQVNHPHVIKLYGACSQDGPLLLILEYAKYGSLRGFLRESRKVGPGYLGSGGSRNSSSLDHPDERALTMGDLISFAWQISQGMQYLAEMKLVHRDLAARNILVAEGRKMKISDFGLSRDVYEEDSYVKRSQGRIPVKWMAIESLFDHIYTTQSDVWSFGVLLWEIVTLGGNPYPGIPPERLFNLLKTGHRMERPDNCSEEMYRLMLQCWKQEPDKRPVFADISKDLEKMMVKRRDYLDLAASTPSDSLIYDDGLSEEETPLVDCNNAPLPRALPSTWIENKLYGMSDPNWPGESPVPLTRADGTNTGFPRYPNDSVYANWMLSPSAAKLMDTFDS

melting point | GI50 (MV4–11 AML cells) | IC50 (CSF-1R; in vitro kinase assay, read-out: CSF-1R IC50 (nM) ± SD) | IC50 (CSF-1R; read-out: CSF-1R IC50) | inhibition at 20 µM (Aurora B) | IC50 (RET) | GI50 (Molm14 par) | inhibition at 20 µM (RETV804L) | inhibition at 20 µM (CSF-1R; at 20 µM) | Structure (SMILES)
134 to 136 °C | 9.9 nM | 13000 nM | 13000 nM | 79.8% | 4710 ± 342 nM | 24.4 nM | 62.3% | – | Cn1nc(C(C)(C)C)cc1NC(=O)Cc1ccc(Nc2cc(Nc3ccc(S(C)(=O)=O)cc3)ncn2)cc1 [13a, 2-(4-(6-(4-(Methylsulfonyl)phenylamino)pyrimidin-4-ylamino)phenyl)-N-(3-tert-butyl-1-methyl-1H-pyrazol-5-yl)acetamide]
168 to 170 °C | 7.2 nM | – | – | 71.9% | 1660 nM | 19.8 nM | 40.8% | 60.7% | CC(C)(C)c1cc(NC(=O)Cc2ccc(Nc3cc(Nc4ccc(S(C)(=O)=O)cc4)ncn3)cc2)no1 [13k, 2-(4-(6-(4-(Methylsulfonyl)phenylamino)pyrimidin-4-ylamino)phenyl)-N-(5-tert-butylisoxazol-3-yl)acetamide]
